The subject of the assay is Rhizoctonia solani. Briefly: Microtiter plate (MTP) fungal growth inhibition assay, OD at 590 nm after 5 days; interaction by Wadley approach. Type of assay: cell-based. The settings on record: for EC50: Rhizoctonia solani. The procedure: In the […] method, synergistic activity is determined from dose response curves. With this method, the efficacy of the active ingredient (“a.i.”) is determined by comparing the degree of fungal attack on treated plants with that on untreated, similarly inoculated and incubated check plants. Each a.i. is generally tested at multiple. (e.g., 6) 25 concentrations, and dose response curves are generated. The dose response curves are used to establish the EC50 (i.e., the effective concentration of a.i. providing 50% disease control) of the individual compounds as well as of the combinations (EC50Observed) The experimentally found values of the mixture at a given weight ratio are compared with the values that would have been found were only a complementary efficacy of the components was present as follows: 5 [formula] • A and B=the single products tested • a and b=the ratio of each product in the mixture • ECA and ECB=observed effective concentration of the single products A and B at different control levels (50 or 90%) 10 The ratio EC50 (A+B)Theo/EC50(A+B)observed expresses the factor of interaction level (R) which may be interpreted in accordance with the following Table: [table] The compound of Formula I, […] and Pyridachlometyl were tested straight or in mixture on the Rhizoctonia solani pathogen. the active ingredients straight or in mixture were diluted in a suitable solvent to a set of concentrations. Two fungicide ratios were tested for each combination between the compound of Formula I and Chloroinconazide or Pyridachlometyl. One hundred microliters of sterile distilled water with or without fungicide were added to 100 μl of pathogen suspension into each well in a microtiter plate (MTP). Each bioassay was carried out with the following 8 treatment groups corresponding to 8 concentrations of the fungicide mixture. In the MTP assay, 3 replicates (wells) were carried out for each concentration of fungicide mixture. The MTPs were incubated in the dark at 19° C. for 5 days under saturated humidity in order to avoid evaporation. Then, the fungal growth in each well was estimated by measuring the Optical Density (OD) at 590 nm with a BMG plate reader (FLUOstar Omega, BMG Labtech). The OD values at 5 days were automatically corrected by comparison with those measured at day zero (inoculation day). The generated data were transferred to the MARS Data Analysis software (BMG Labtech) which allows to calculate percentage of growth inhibition induced by each concentration of fungicide tested. Finally, the EC50 of each product and mixture was determined. • (i) No bacterial nor fungal contamination at any stage of the assay must be observed. • (ii) A normal and constant mycelium growth must be observed in the control wells (without fungicide). • (iii) At the end of the evaluation the final minimum OD must reach at least a value of 0.25 Absorbance's Unit (AU).

Setting [1] is: MTP, 5 days at 19° C., OD 590 nm.
Where [2] appears, read: Table 9, active ingredient straight.

Molecules are shown by their SMILES. Like-named read-outs stand apart in the source and are kept apart here.

A word on the EC50: it is the concentration at which the effect is half-maximal. Take `Cc1ccc(S(=O)(=O)n2cc(F)c(=N)n(C)c2=O)cc1` [Compound (I), 5-fluoro-4-imino-3-methyl-1-tosyl-3,4-dihydropyrimidin-2(1H)-one]: the EC50 (120 h, MTP, 5 days at 19° C., OD 590 nm, read-out: EC50) was above 320 µg/mL and the EC50 (Table 9, active ingredient straight, read-out: EC50 observed) is at least 320 µg/mL. Further, the “percentage of growth inhibition” value is listed as 15.8% (Dose 0.020); 23.9% (Dose 0.102); 22.5% (Dose 0.512); 0.7% (Dose 2.56); 13.5% (Dose 12.8); 27.7% (Dose 64). The “percentage of growth inhibition” value (Dose 320) is listed as 40.1%.

For the compound `CC1N[C@H](C(=O)N/N=C/c2ccc(Cl)cc2)Cc2c1[nH]c1ccccc21` (stereo partly drawn) [Chloroinconazide], the “percentage of growth inhibition” value by setting is: (Dose 0.110) 14.4%; (Dose 0.329) 2.0%; (Dose 0.988) 24.1%; (Dose 2.96) 9.1%; (Dose 8.89) 19.5%; (Dose 26.7) 99.3%. Moreover, the “percentage of growth inhibition” value (Dose 80) is 100.1%. Moreover, the 50% effective concentration (EC50) under setting [1] came out at 15.399 µg/mL. The EC50 observed under setting [2] was determined as 15.3990 µg/mL.

For the compound `Cc1nnc(Cl)c(-c2c(F)cccc2F)c1-c1ccccc1` [Pyridachlometyl], the “percentage of growth inhibition” value is on record as −1.1% (Dose 0.00781); 2.6% (Dose 0.01563); 3.7% (Dose 0.03125); 12.7% (Dose 0.06250); 68.7% (Dose 0.12500); 76.0% (Dose 0.2500). Besides, the “percentage of growth inhibition” value (Dose 0.500) stood at 77.2%. The EC50 under setting [1] worked out at 0.111 µg/mL. Further, the EC50 observed under setting [2] was 0.1115 µg/mL.

These data come from patent US20260271929A1, “FUNGICIDAL COMBINATIONS, MIXTURES AND COMPOSITIONS AND USES THEREOF” (ADAMA MAKHTESHIM LTD., priority 2023, published 2026).
